Source: patent US20010056099A1, “Method of reducing morbidity and the risk of mortality” (priority 2000, published 2001)

Legend:
[1] = tested on: OVX rats; experiment: Ovariectomized rat model: bone histomorphometry of fifth lumbar vertebral body; format: in vivo; settings: 4 weeks; for OVX-induced increase in bone formation rate (BFR) / percent eroded surface (index of osteoclastic bone resorption) compared with sham controls: lumbar vertebra
Excerpt: (§1) In women, estrogen deficiency during the menopause results in increased bone turnover leading to bone loss. Ovariectomy in rats produces estrogen deficiency and increased bone turnover leading to trabecular bone loss similar to that observed in post-menopausal women (Kalu, D. N., Bone and Mineral 1991;15:175; Frost, H. M., Jee W. S. S., Bone and Mineral 1992;18:227; Wronski, T. J., Yen, C-F, Cells Materials 1991 ;(suppl. 1):69). The OVX rat is thus an appropriate model to evaluate compounds for the prevention and treatment of post-menopausal osteoporosis. The ability of PPTN to inhibit estrogen deficiency bone loss was assessed in 5-month-old OVX rats, since ovariectomy causes significant bone loss in the lumbar vertebrae, proximal tibia, and distal femoral metaphyses (Ke, H. Z., et al., Endocrin 1995;136:2435; Chen, H. K., et al., J Bone Miner Res 1995;10:1256).
(§2) Five-month-old OVX female rats were treated with PPTN at oral doses of 0.733, 7.33, 73.3, and 733 μg/kg/day, or 17α-ethynyl estradiol (EE) at 30 μg/kg/day (10 rats per subgroup) daily for 4 weeks. The oral treatment began 1 day after surgery. Groups of vehicle-treated sham rats (n=10) and vehicle-treated OVX rats (n=10) served as controls. Calcein at 10 mg/kg was injected s.c. to all rats 12 and 2 days before necropsy as a fluorochrome bone marker to measure bone dynamic histomorphometric parameters. The effects of PPTN on the following end points were determined: (a) serum osteocalcin, a biochemical marker of bone turnover, (b) bone mineral density of lumbar vertebrae and distal femoral metaphyses, (c) bone histomorphometry of fifth lumbar vertebral body and proximal tibial metaphyses.
In order to understand the cellular mechanism of bone-protective effects of PPTN at the tissue level, bone histomorphometric methods were used to determine the effects of PPTN on cancellous bone of the fifth lumbar vertebral body in OVX rats. Ovariectomy caused significant decreases in trabecular bone volume (trabecular bone area divided by marrow space area, expressed as percent) and trabecular number, and a significant increase in trabecular separation of the fifth lumbar vertebral body.

[2] = tested on: OVX rats; experiment: Ovariectomized rat model: lumbar vertebral BMD by dual-energy X-ray absorptiometry; format: in vivo; settings: 4 weeks
Excerpt: as §1, §2
The first to the sixth lumbar vertebrae from each rat were removed during necropsy. These were then scanned ex vivo using dual-energy X-ray absorptiometry. The scan images were analyzed, and bone area, bone mineral content (BMC), and bone mineral density (BMD) of whole lumbar vertebrae (WLV), and LV1 through LV6 were determined. […] The changes in BMC were similar to those observed in BMD. […]

[3] = tested on: MDA-MB-231 cells; experiment: Inhibition of in vitro human breast tumor cell growth (ER-negative line); format: cell-based; settings: MDA-MB-231 (ER-negative), 6 days incubation, direct cell counts
Experimental: The in vitro antiproliferative effects of (-)-cis-6-phenyl-5-[4-(2-pyrrolidin-1-yl-ethoxy)-phenyl]-5,6,7,8-tetrahydro-naphthalene-2-ol (PPTN) were tested using two types of human breast cancer cell lines: first, MCF-7 cells, which contain ER as well as progesterone receptors (PgR), and second, MDA-MB-231 cells, which lack ER and PgR, and enable the determination of an effect that is independent of the ER mechanism. The effect of PPTN on the growth of these different cell lines was determined by incubation of the cells with various compound concentrations for 6 days.
The antiproliferative effects were then determined by direct cell counts. PPTN inhibited the growth of the ER-positive cell line MCF-7.

[4] = tested on: OVX rats; experiment: Ovariectomized rat model: serum osteocalcin by radioimmunoassay; format: in vivo; settings: daily for 4 weeks
Excerpt: as §1
Five-month-old OVX female rats were treated with PPTN at oral doses of 0.733, 7.33, 73.3, and 733 μg/kg/day, or 17α-ethynyl estradiol (EE) at 30 μg/kg/day (10 rats per subgroup) daily for 4 weeks. […] The effects of PPTN on the following end points were determined: (a) serum osteocalcin, a biochemical marker of bone turnover, (b) bone mineral density of lumbar vertebrae and distal femoral metaphyses, (c) bone histomorphometry of fifth lumbar vertebral body and proximal tibial metaphyses. […]

[5] = tested on: OVX rats; experiment: Ovariectomized rat model: femoral BMD by dual-energy X-ray absorptiometry; format: in vivo; settings: 4 weeks
Excerpt: as §1, §2
Using dual-energy X-ray absorptiometry, the right femur of each rat was scanned ex vivo. Bone mineral density (BMD) of the distal femoral metaphyses (second 0.5 cm from the distal end of femur) and the proximal femur (the first 0.5 cm from the proximal end of femur, which contains the femoral head, neck, and greater trochanter) was determined.

[6] = tested on: OVX rats; experiment: Ovariectomized rat model: histomorphometry of proximal tibial metaphyses; format: in vivo; settings: 4 weeks
Excerpt: as §1, §2
In order to determine the effect of PPTN on long bone metaphyses, histomorphometric analyses were performed on the proximal tibiae.

[7] = PPTN at 73.3 or 733 μg/kg/day oral
[8] = PPTN at doses ≧7.33 μg/kg/day oral

In the case of `Oc1ccc2c(c1)CC[C@H](c1ccccc1)[C@@H]2c1ccc(OCCN2CCCC2)cc1` [PPTN, (-)-cis-6-phenyl-5-[4-(2-pyrrolidin-1-yl-ethoxy)-phenyl]-5,6,7,8-tetrahydro-naphthalene-2-ol], the “ED50 in preserving lumbar vertebral cancellous bone mass and structure” value ([1]; OVX rats, oral) was “less than 0.733 μg/kg/day”, the “trabecular number of fifth lumbar vertebral body compared with sham controls” value [1, 7] was “significantly increased” and the “bone turnover rate, lumbar vertebra” value ([1]; PPTN at all dose levels, oral) was “did not differ from sham controls”. For the same compound, the “OVX-induced increase in bone formation rate (BFR)” value ([1]; PPTN at all dose levels, oral) was “inhibited this increase”, the “percent eroded surface (index of osteoclastic bone resorption) compared with sham controls” value ([1]; PPTN at all dose levels, oral) was “significantly decreased” and the “OVX-induced changes in trabecular bone volume, trabecular number and trabecular separation of fifth lumbar vertebral body” value ([1]; all doses of PPTN (0.733-733 μg/kg/day oral)) was “completely prevented”. For the same compound, the “lumbar vertebral BMD compared with both sham and OVX controls” value ([2]; PPTN 73.3 μg/kg/day oral) was “increased significantly”, the “OVX-induced decrease in lumbar vertebral BMD” value ([2]; PPTN at all dose levels (0.733, 7.33, 73.3, 733 μg/kg/day oral)) was “completely prevented” and the “inhibition of cell proliferation” value [3] was “did not inhibit cell proliferation”. The “OVX-induced increase in serum osteocalcin concentration” value [4, 8] was “completely prevented”, the “BMD of distal femoral metaphyses and proximal femur” value ([5]; PPTN at 0.733 or 7.33 μg/kg/day oral) was “did not differ from OVX controls” and the “OVX-induced decreases in BMD of distal femoral metaphyses and proximal femur” value [5, 7] was “completely prevented the decreases”. For the same compound, the “proximal tibial trabecular bone volume” value ([6]; PPTN at 0.733 μg/kg/day oral) was “no significant effect”, the “percent osteoclast surface compared with OVX controls” value ([6]; PPTN at 0.733 μg/kg/day, proximal tibia) was “decreased significantly” and the “osteoclast number per millimeter of bone surface and percent osteoclast surface compared with both sham and OVX controls” value ([6]; PPTN at 7.33, 73.3, or 733 μg/kg/day oral, proximal tibia) was “significantly decreased”. For the same compound, the “bone turnover rate in proximal tibial trabecular bone” value ([6]; PPTN at doses of 7.33 to 733 μg/kg/day oral) was “did not differ from sham controls” and the “proximal tibial trabecular bone volume compared with OVX controls” value [6, 8] was “significantly greater”.

For `C#C[C@]1(O)CC[C@H]2[C@@H]3CCc4cc(O)ccc4[C@H]3CC[C@@]21C` [EE, 17α-ethynyl estradiol, reference compound], the “OVX-induced changes in trabecular bone volume, trabecular number and trabecular separation of fifth lumbar vertebral body” value ([1]; EE 30 μg/kg/day oral) was “completely prevented”, the “bone turnover rate, lumbar vertebra” value ([1]; EE 30 μg/kg/day oral) was “did not differ from sham controls” and the “trabecular number of fifth lumbar vertebral body compared with sham controls” value ([1]; EE 30 μg/kg/day oral) was “significantly increased”. The “OVX-induced increase in bone formation rate (BFR)” value ([1]; EE 30 μg/kg/day oral) was “inhibited this increase”, the “percent eroded surface (index of osteoclastic bone resorption) compared with sham controls” value ([1]; EE 30 μg/kg/day oral) was “significantly decreased” and the “OVX-induced decrease in lumbar vertebral BMD” value ([2]; EE 30 μg/kg/day oral) was “completely prevented”. The “OVX-induced increase in serum osteocalcin concentration” value ([4]; EE 30 μg/kg/day oral) was “completely prevented”, the “OVX-induced decrease in BMD of distal femoral metaphyses” value ([5]; EE 30 μg/kg/day oral) was “prevented the decrease” and the “proximal femoral BMD” value ([5]; EE 30 μg/kg/day oral) was “had no effect”. For the same compound, the “bone turnover rate in proximal tibial trabecular bone” value ([6]; EE 30 μg/kg/day oral) was “did not differ from sham controls” and the “osteoclast number per millimeter of bone surface and percent osteoclast surface compared with both sham and OVX controls” value ([6]; EE 30 μg/kg/day oral, proximal tibia) was “significantly decreased”.
